According to patent US12201619B2, “Compounds and methods for use in the treatment of microglia-mediated disorders” (NSC Therapeutics GmbH, priority 2018, dated 2025):
Where a chain is given by its changes, count along the chain named. “Also recorded” adds a separate entry of the source.

What was measured:
human M1 mAChR [1] = target: T1, human M1 mAChR (Homo sapiens, UniProt P11229); test: cell-based; conditions: for calcium mobilization response relative to CCh: CHOM1 cells, 50 μM compound
T1 sequence (P11229 1-460): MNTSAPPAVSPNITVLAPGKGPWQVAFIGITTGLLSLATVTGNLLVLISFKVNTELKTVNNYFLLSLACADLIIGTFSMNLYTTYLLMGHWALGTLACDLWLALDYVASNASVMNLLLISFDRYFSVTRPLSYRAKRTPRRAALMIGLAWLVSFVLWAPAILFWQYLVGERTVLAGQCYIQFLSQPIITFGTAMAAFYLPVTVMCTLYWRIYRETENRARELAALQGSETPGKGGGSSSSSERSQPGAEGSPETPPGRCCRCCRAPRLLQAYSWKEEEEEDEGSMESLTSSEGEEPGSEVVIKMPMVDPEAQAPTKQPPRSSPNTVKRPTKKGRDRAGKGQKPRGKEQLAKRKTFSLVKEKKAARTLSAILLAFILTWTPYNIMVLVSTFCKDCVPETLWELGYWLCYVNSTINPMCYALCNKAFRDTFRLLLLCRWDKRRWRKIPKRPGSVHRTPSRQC
Experimental: Cells were routinely cultured in Dulbecco's Modified eagle medium (Gibco, UK) supplemented with 10% fetal bovine serum (FBS), 1×MEM non-essential amino-acid, […] Glutamine, 100μ/ml Penicillin, 0.1 mg/ml Streptomycin, 25 μg/ml Amphotericin B and 100 μg/ml G418 (Biological industries, Israel). Cells were kept in a humidified atmosphere at 37° C. in 5% CO2 and were passaged twice weekly by 2.5 mg/ml trypsin-EDTA (0.02%) solution (Biological industries, Israel) and re-suspended in fresh media.
Calcium fluorescence measurements were performed using a NOVOstar plate reader with an injector and a pipetting system (BMG Labtech, Ortenberg, Germany). At the day before the experiment Chinese Hamster Ovary (CHO) cells expressing human M1 mAChR subtypes (CHOM1) were harvested and rinsed with culture medium (see section “cell culture”, supra) without Phenol red and evenly plated into black-wall clear optical bottom 96-well plate (Nunc, Rochester NY, USA) at a density of 40,000 cells/well. Growth medium was removed and 80 μl of loading buffer, containing 2.5 mM probenecid, was carefully added (loading buffer prepared according to FLUO-4 NW calcium assay kit manual). The cell plate was incubated at 37° C. for 30 minutes; then at room temperature for an additional 30 minutes. EGTA (10 μl of 50 mM dissolved in HBSS) was added automatically to each well using the NOVOstar injector system followed by shaking of 1 minute (1 mm width, 600 rpm) and then incubated for another 10 minutes. HBSS alone or test compounds dissolved in HBSS were then added (10 μl) sequentially into separate wells using the NOVOstar robotic pipettor system. Fluorescence intensity was measured at 0.5 second intervals, for 30 second for each well, using an excitation wavelength of 485 nm (bandwidth 10 nm) and emission of 520 nm (bandwidth 10 nm), cut-off 515 nm. All assays were carried out in triplicates in three independent experiments. Competition curves and EC50 values were derived using the GraphPad Prism software program, version 3.0.

M1 receptor = target: T2, M1 receptor (Homo sapiens, UniProt P11229); conditions: in vitro; cited from earlier work
T2 sequence (P11229 1-460): T1 sequence (P11229 1-460)

AD patients = conditions: cited from earlier work
human M1 mAChR [2] = target: T1, human M1 mAChR; test: Phosphoinositide (PI) hydrolysis in CHOM1 cells; format: cell-based; parameters: expressed in transfected cells; host or cells: CHO (Chinese Hamster Ovary) cells, CHOM1, kept under G418; conditions: for Emax at 1000 µM: read-out: PI hydrolysis maximal response relative to CCh
Experimental: (§1) Rat pheochromocytoma cells (PC12) transfected with rat M1 muscarinic receptor (PC12M1) or CHOM1 cells were seeded in 24-well plates at a density of 4-8×10^5 cells/well. A day later, a fresh growth medium containing 1 μCi/ml [^3H]inositol (myo-[2-^3H(N)] 22 Ci/mmol; purchased from NEN, Boston, MA) was added for 18-24 h (overnight). Then, the medium was removed and the cells were washed twice followed by pre-incubation (10 min) with serum-free medium containing 20 mM Hepes pH 7.4 and 10 mM LiCl. […] Basal activity was determined in cells that were incubated in parallel without the tested compounds. Termination of the assay was carried out by aspirating the media and adding 0.5 ml 2% trichloroacetic acid (TCA) followed by agitating the cells in the cold for 30 min. The TCA extracts were transferred to anion-exchange columns, washed five times with 5 mM inositol, once with 5 ml 5 mM Na2B4O7 in 60 mM formic acid, and the total IPs were eluted with 3 ml 1 M NH4COOH in 0.1 M formic acid. The effluent was collected into scintillation vials and the radioactivity was measured using liquid scintillation counter, 1214 Rackbeta LKB Wallac.

[3] = test system: human blood-derived macrophages; test: Cell viability (PrestoBlue) of blood-derived human macrophages; format: cell-based; conditions: for cell viability in regards to medium control: 0-24 h, 1-2000 μM for NSC001 and AF102B; for persistence of the cell viability effect: after 24 hours of treatment
Experimental: Human blood-derived macrophages were isolated from buffy coat via standard protocols (Monocyte isolation Kit, 130091153, Miltenyi Biotec GmbH, Germany) and differentiated for 9 days in M-CSF medium (Ser. No. 12/065,074, Thermo Fisher, Switzerland,) supplemented with 125 ng/ml human GM-CSF (130093864, Miltenyi Biotec GmbH, Germany) to induce M1 macrophage differentiation. Upon differentiation, cells were harvested and re-seeded at 1 Mio cells per 24-well. […] Cell viability was detected by absorbance measurements utilizing the PrestoBlue colorimetric assay (PrestoBlue Cell Viability Reagent, A13261, Thermo Fisher, Switzerland). Cell viability was assessed directly after compound application at 0 h and after 1 h, 3 h and 24 h.

[4] = test system: TREM2 (sTREM2, tTREM2) in primary microglia; test: Soluble and total TREM2 levels (ELISA) in primary microglia cultures; format: cell-based, mouse; conditions: for sTREM2 levels in medium: normalized to PMA 1 μM
Experimental: Primary microglia were isolated from C57BL6 pups (P4-6). Mouse brains were prepared by removing the cerebellum and the meninges. Brain tissue was dissected and single cell suspension was sorted via CD11b Microbeads (Milteny Biotec) to obtain primary microglia. Cells were plated at 4×10^5 cell/ml in 24 well plates and cultured for 24 hours in DMEM supplemented with 10% FBS and 1% Penicillin/Streptomycin.
Mouse primary microglia were prepared from mice postnatal day 4-6 according to standard protocols (Neuronal Tissue Dissociation Kit (P), 130-092-628 and CD11b Microbeads, 130-093-634; Miltenyi Biotec 5 GmbH, Germany) and seeded in 24-well plates at a density of 4×10^5 cells/well. After one day, cell medium was removed and cells were washed once with PBS. Subsequently, cell were treated with compound NSC001 (0-2000 μM) in FBS-free DMEM for 1 or 24 hours. Termination of the assay was carried out by collecting the media and concomitant concentration via centrifugal filter units (Amicon, Z648027-24EA, Sigma 10 Aldrich, Ireland). Cell lysis was performed by adding RIPA lysis buffer (RIPA buffer, R0278, Sigma-Aldrich Co LLC, USA) followed by agitating the cells at 4° C. for 30 min. Primary microglia cell lysates and concentrated cell medium were analyzed for soluble TREM2 (sTREM2; FIG. 3A,B) and total TREM2 (tTREM2; FIG. 3C,D) levels by ELISA (CSBEL024405MO, Cusabio Life Science, China).

[5] = dry storage conditions; cited from earlier work
3×Tg-AD mice = conditions: cited from earlier work
[6] = target: T3, rat M1 muscarinic receptor (Rattus norvegicus, UniProt P08482); test: Phosphoinositide (PI) hydrolysis in PC12M1 cells; format: cell-based
T3 construct: expressed in transfected cells; host or cells: PC12 rat pheochromocytoma cells (PC12M1)
T3 sequence (P08482 1-460): T1 sequence (P11229 1-460) with A5V, T254S, P309S, R320K, A337G, I413V
Experimental: as §1

[7] = 24 hours treatment, hydrochloride
[8] = 24 hours treatment, listed as AF267B

| Compound | EC50 (human M1 mAChR [1]) [nM] | calcium mobilization response relative to CCh (human M1 mAChR [1]) [%] | Aβ levels (M1 receptor) | Aβ-induced neurotoxicity (M1 receptor) | tau hyperphosphorylation (M1 receptor) | αAPPs (M1 receptor) | Emax at 1000 µM (human M1 mAChR [2]) [%] | persistence of the cell viability effect [3] | cell viability in regards to medium control [3] | further results |
| --- | --- | --- | --- | --- | --- | --- | --- | --- | --- | --- |
| C[C@@H]1O[C@@]2(CS1)CN1CCC2CC1.Cl (racemic) [AF102B, cis-2-Methylspiro[1,3-oxathiolane-5,3′-quinuclidine] hydrochloride, reference compound] | 1680 ± 330 | 101 | decrease | block | decrease | elevate | 43 | persisted |  | levels of Aβ in the CSF (AD patients): significantly decreased; cell viability in regards to medium control ([3]; hydrochloride): increased; also recorded: increase in viability; sTREM2 levels in medium [4, 7]: capable of inducing sTREM2 levels; also recorded: significantly enhances; also recorded: significantly increases; cellular tTREM2 levels [4, 7]: not affected; also recorded: unaffected; also recorded: unaltered; concentration at which the compound is active ([4]; features (i) to (iii): sTREM2 secretion, calcium mobilization and/or PI hydrolysis): 10 to 100 µM |
| CCC1SC2(CCN(C)CC2)NC1=O (stereo not shown) [Form II] |  |  |  |  |  |  |  |  |  | stability of the crystalline form [5]: highly stable under dry storage conditions for at least two years |
| CCCCCCCCCCCCCC(=O)O[C@@H]1[C@@H](C)[C@@]2(O)[C@@H](C=C(CO)C[C@]3(O)C(=O)C(C)=C[C@@H]23)[C@@H]2C(C)(C)[C@]12OC(C)=O [PMA, Phorbol myristate acetate] |  |  |  |  |  |  |  | reversed to baseline | increased |  |
| CC[C@@H]1SC2(CCN(C)CC2)NC1=O [NSC001, (S)-2-ethyl-8-methyl-1-thia-4,8-diaza-spiro[4.5]decan-3-one] | 1840 ± 390 | 113 | decrease | block | decrease | increase | 63 ± 1 | persisted | increased; also recorded: increase in viability | EC50 (human M1 mAChR [2]; CHOM1 cells): 19 µM; spatial memory (3×Tg-AD mice): improve spatial memory; Aβ and tau pathologies (3×Tg-AD mice; hippocampus and cortex): reduced; PI hydrolysis / M1 mAChR activation [6]: efficacious; also recorded: efficiently induces PI hydrolysis; cellular tTREM2 levels ([4]; 1 hour treatment): remained constant; also recorded: no effect; sTREM2 levels in medium ([4]; 1 hour treatment): no alteration detected; also recorded: no effect; concentration able to increase sTREM2 levels comparable to PMA ([4]; 24 h, PMA 1 μM): 1 µM; further increase in sTREM2 exceeding the levels upon PMA treatment (1 μM) ([4]; 24 h, higher concentrations 100-2000 μM): not observed; cellular tTREM2 levels ([4]; 24 hours treatment): remain constant; sTREM2 levels in medium ([4]; 24 hours treatment): significant increase; sTREM2 levels in medium [4, 8]: significantly increases; cellular tTREM2 levels [4, 8]: unaltered; cellular tTREM2 levels ([4]; 24 hours treatment, listed as NSC0001): not affected; concentration at which the activity of features (i) to (iii) is displayed ([4]; sTREM2 secretion, calcium mobilization and/or PI hydrolysis): 1 to 5 µM |
| CCO [Ethanol] |  |  |  |  |  |  |  |  | reduced cell viability; also recorded: rapidly decreases cell viability |  |
